Measured values reported in patent publication US5268389A, “Thiocarboxylate ester compounds compositions containing the same” (priority 1990, dated 1993).
pEC50: −log10 of the molar value. “And” between values parts separate entries of the source, which are not always exact repeats. Equal entries are not always repeated.

Assays:
HIV [1] = assay: Reduction of HIV cytopathic effect, CEM-6 (CEMV test, six days); format: cell-based; conditions: CEM cells; for pEC50: free HIV, read-out: Activity of Anti-HIV Compounds (EC50), CEM-6; for Activity class of Anti-HIV Compounds, CEM-6: inhibition of viral cytopathic effect, 8640 min
Experimental: (§1) The compounds of Examples were tested for anti-AIDS activity by subjecting them to standard National Cancer Institute ("NCI") in vitro screening procedures. In carrying out each test, two blanks were run. In the first blank, HIV and a culture of a standard human cell line were incubated together to measure the infectivity of the virus. The viability of the cells was measured after holding for six or seven days. In an "effective" test, most cells were infected before the holding period was complete.
(§2) Finally, the protective effects of the test compounds were measured. Each cell culture and test compound were incubated with the virus and the viability of the cells was measured as a function of compound concentration after holding for six or seven days. If the compound is active in protecting the cells against the virus, there is typically low cell viability until an effective concentration of the test compound is reached. At this point, cell viability increases steadily toward 100% unless the toxic effect of the compound (as measured in the second blank) takes effect. The concentration of the test compound that results in 50% "control," i.e., a 50% reduction of the viral cytopathic effect, is defined as the EC 50. The therapeutic index TI50 is calculated as IC50/EC50.
(§3) Values of test compound concentrations required for between 20 and 50% reduction of the viral cytopathic effect can also be determined. Such compounds are classified as moderately active.
(§4) The compounds were tested to determine their reduction of HIV cytopathic effect on the human cell lines CEM and MT2. Tests were done by innoculating these cell lines either with free HIV (V) or with a virus Previously cultured with host cells (C). Thus, in Table III the designation CEMV means CEM line cells innoculated with free virus and MT2C means MT2 cells innoculated with cultured viral infected MT2 cells. In some cases the compound was also tested on a cell line together with a sub-effective amount of the known HIV viricide AZT. This is done to test possible synergistic effects. Such a test on the CEM line is denoted CEMZ.
(§5) 1) T4 lymphocytes (CEM cell line) are exposed to HIV at a virus to cell ratio of approximately 0.05 and plated along with non-infected control cells in 96-well microtiter plates.
(§6) 2) Each candidate agent is dissolved in dimethyl sulfoxide (unless otherwise indicated), then diluted 1:200 in cell culture medium. Further dilutions (five-fold) are prepared before adding to an equal volume of medium containing either infected or noninfected cells.
(§7) 3) Cultures are incubated at 37° C. in a 5% carbon dioxide atmosphere for seven days (if six days the CEMV test is identified as CEM-6).
(§8) 4) The tetrazolium salt, XTT, is added to all wells, and cultures are incubated to allow formazan color development by viable cells.
(§9) 5) Individual wells are analyzed spectrophotometrically to quantity formazan production, and in addition are viewed microscopically for detection of viable cells and confirmation of protective activity.
(§10) 6) Drug-treated virus-infected cells are compared with drug-treated non-infected cells and with other appropriate controls (untreated infected and untreated non-infected cells, drug-containing wells without cells, etc.) on the same plate.

HIV [2] = assay: microbe, parasite or virus in culture; format: cell-based; conditions: CEM cells, free HIV, read-out: Activity of Anti-HIV Compounds (EC50), CEMV
Experimental: as §1
In the second blank, the cell line culture and the compound being tested (but not virus) were incubated together to measure the toxicity of the drug to the cellline. The viability of the cells was measured as a function of concentration of the compound, after holding for seven days. Typically, the cells survive at low compound concentrations, but at some higher concentration, toxicity of the compound is manifested and the cells die. The concentration of the test compound that results in 50% inhibition of cell growth is defined as the IC50.
as §2, §3, §4, §5, §6, §7, §8, §9, §10
7) A determination of activity is made. […]

[3] = Human immunodeficiency virus 1, CCRF-CEM, 144 h
[4] = Human immunodeficiency virus 1, CCRF-CEM

CC(C)OC(=O)c1cc(NC(=S)OC2CCCCC2)ccc1Cl [Compound 44]
pEC50 (HIV [1]): 5.87
pEC50 (HIV [1]; [3]): 6.12

CC(C)OC(=O)c1cc(NC(=O)c2cc3ccccc3[nH]2)ccc1Cl [Compound 104]
Activity class of Anti-HIV Compounds, CEM-6 (HIV [1]): MA (moderate activity (MA), that is, inhibition between approximately 20 and 50%)

Cc1ccsc1C(=O)Nc1ccc(Cl)c(C(=O)OC(C)C)c1 [Compound 106]
pEC50 (HIV [1]): 5.66

CCCOC(=O)c1ccc(C)c(NC(=O)C2=C(C)OCCS2)c1 [Compound 75, Propyl 3-[[(5,6-dihydro-2-methyl-1,4-oxathiin-3-yl)carbonyl]amino]-4-methylbenzoate]
pEC50 (HIV [1]): 6.04
pEC50 (HIV [1]; [3]): 5.97

COCCOC(=O)c1cc(NC(=O)C2=C(C)OCCS2)ccc1Cl [Compound 69]
pEC50 (HIV [1]; [3]): 6.47

CCCCOC(=O)c1cccc(NC(=O)C2=C(C)OCCS2)c1 [Compound 76]
Activity class of Anti-HIV Compounds, CEM-6 (HIV [1]): MA (moderate activity (MA), that is, inhibition between approximately 20 and 50%)

CC(C)OC(=O)c1cc(NC(=S)OCC2CC2)ccc1Cl [Compound 46]
pEC50 (HIV [1]): 7.28

Cc1nc(C(=O)Nc2ccc(Cl)c(C(=O)OC(C)C)c2)c(-c2ccccc2)o1 [Compound 103]
Activity class of Anti-HIV Compounds, CEM-6 (HIV [1]): MA (moderate activity (MA), that is, inhibition between approximately 20 and 50%)

Ethyl 5-[(2-aminobenzoyl)amino]-2-chlorobenzoate [Compound 88]
pEC50 (HIV [1]): 5.24 and 5.51

CC(C)OC(=O)c1cc(NC(=O)c2ccccc2Cl)ccc1Cl [Compound 90, 1-Methylethyl 2-chloro-5-[(2-chlorobenzoyl)amino]benzoate]
Activity class of Anti-HIV Compounds, CEM-6 (HIV [1]): MA (moderate activity (MA), that is, inhibition between approximately 20 and 50%)

CCOC(=O)c1cc(NC(=O)c2ccccc2)ccc1Cl [Compound 87, Ethyl 5-(benzoylamino)-2-chlorobenzoate]
Activity class of Anti-HIV Compounds, CEM-6 (HIV [1]): MA (moderate activity (MA), that is, inhibition between approximately 20 and 50%)

C#CCOC(=O)Nc1ccc(Cl)c(C(=O)OC(C)C)c1 [Compound 92, 1-Methylethyl 2-chloro-5-[((2-propynyloxy)carbonyl]amino]benzoate]
Activity class of Anti-HIV Compounds, CEM-6 (HIV [1]): MA (moderate activity (MA), that is, inhibition between approximately 20 and 50%)

CCCC1=C(C(=O)Nc2ccc(Cl)c(C(=O)OCC)c2)SCCO1 [Compound 70, Ethyl 2-chloro-5-[[(5,6-dihydro-2-propyl-1,4-oxathiin-3-yl)carbonyl]amino]benzoate]
pEC50 (HIV [1]): 6.68 and 6.64
pEC50 (HIV [1]; [3]): 6.77

Cc1occc1C(=O)Nc1ccc(Cl)c(C(=O)OC(C)C)c1 [Compound 79, 1-Methylethyl 2-chloro-5-[[(2-methyl-3-furanyl)carbonyl]amino]benzoate]
pEC50 (HIV [1]): 5.48

CCOC(=O)c1cc(NC(=O)c2ccccc2OC)ccc1Cl [Compound 86, Ethyl 2-chloro-5-[(2-methoxybenzoyl)amino]benzoate]
pEC50 (HIV [1]): 5.87
pEC50 (HIV [1]; [3]): 5.76

CCCC1=C(C(=O)Nc2ccc(Cl)c(C(=O)OC)c2)SCCO1 [Compound 71, Methyl 2-chloro-5-[[(5,6-dihydro-2-propyl-1,4-oxathiin-3-yl)-carbonyl]amino]benzoate]
pEC50 (HIV [1]): 5.74 and 5.79
pEC50 (HIV [1]; [3]): 6.00

CC(C)OC(=O)c1cc(NC(=S)N(C)C)ccc1Cl [Compound 48]
Activity class of Anti-HIV Compounds, CEM-6 (HIV [1]): MA (moderate activity (MA), that is, inhibition between approximately 20 and 50%)

CC(C)=CC(=O)Nc1ccc(Cl)c(C(=O)OC(C)C)c1 [Compound 91, 1-Methylethyl 2-chloro-5-[(3-methyl-1-oxo-2-butenyl)amino]-benzoate]
Activity class of Anti-HIV Compounds, CEM-6 (HIV [1]): MA (moderate activity (MA), that is, inhibition between approximately 20 and 50%)

Cc1cc(C)c(C(=O)Nc2ccc(Cl)c(C(=O)OC(C)C)c2)s1 [Compound 108]
Activity class of Anti-HIV Compounds, CEM-6 (HIV [1]): MA (moderate activity (MA), that is, inhibition between approximately 20 and 50%)

CC1=C(C(=O)Nc2cccc(C(=O)OC(C)C)c2)SCCO1 [Compound 10, 1-Methylethyl 3-[[(5,6-dihydro-2-methyl-1,4-oxathiin-3-yl)carbonyl]amino]benzoate]
pEC50 (HIV [2]): 5.54
pEC50 (HIV [2]; [4]): 5.52

CC1=C(C(=O)Nc2ccc(Cl)c(C(=O)OC(C)C)c2)SCCS1 [Compound 27, 1-Methylethyl 2-chloro-5[[(5,6-dihydro-3-methyl-1,4-dithiin-2-yl)carbonyl]amino]benzoate]
pEC50 (HIV [2]): 6.09
pEC50 (HIV [2]; [4]): 5.86

Cc1cc(C(=O)Nc2ccc(Cl)c(C(=O)OC(C)C)c2)c(C)o1 [Compound 81, 1-Methylethyl 2-chloro-5-[[(2,5-dimethyl-3-furanyl)carbonyl]amino]benzoate]
pEC50 (HIV [1]; [3]): 6.38

CC1=C(C(=O)Nc2ccc(F)c(C(=O)OC(C)C)c2)SCCO1 [Compound 72]
pEC50 (HIV [1]): 6.23 and 6.47
pEC50 (HIV [1]; [3]): 6.27

CC1=C(C(=O)Nc2ccc(C)c(C(=O)OC(C)C)c2)SCCO1 [Compound 73]
pEC50 (HIV [1]): 6.24
pEC50 (HIV [1]; [3]): 6.39

CCOC(=O)c1ccc(C)c(NC(=O)C2=C(C)OCCS2)c1 [Compound 14, Ethyl 3-[[(5,6-dihydro-2-methyl-1,4-oxathiin-3-yl)carbonyl]amino]-4-methylbenzoate]
pEC50 (HIV [2]): 5.28
pEC50 (HIV [2]; [4]): 5.12

CC(C)OC(=O)c1cc(NC(=O)c2c(Br)c(Br)c(Br)c(Br)c2C(=O)O)c(F)cc1Cl [Compound 20, 2,3,4,5-Tetrabromo-6-[[[4-chloro-2-fluoro-5-[(1-methylethoxy)carbonyl]phenyl]amino]carbonyl]benzoic acid]
pEC50 (HIV [2]): 4.23 and 4.16 and 4.26
pEC50 (HIV [2]; [4]): 4.16

CCC1=C(C(=O)Nc2ccc(Cl)c(C(=O)OC(C)C)c2)SCCO1 [Compound 7, 1-Methylethyl 2-chloro-5-[[(2-ethyl-5,6-dihydro-1,4-oxathiin-3-yl)carbonyl]amino]benzoate]
pEC50 (HIV [2]): 6.15
pEC50 (HIV [2]; [4]): 6.08

CC(C)OC(=O)c1cc(NC(=O)C(C)(C)C)c(F)cc1Cl [Compound 30, 1-Methylethyl 2-chloro-5-[(2,2-dimethyl-1-oxopropyl)amino]-4-fluorobenzoate]
pEC50 (HIV [2]; [4]): 4.37

COCCOC(=O)c1cc(NC(=O)c2ccccc2)ccc1Cl [Compound 84, 2-Methoxyethyl 5-[benzoylamino)-2-chlorobenzoate]
Activity class of Anti-HIV Compounds, CEM-6 (HIV [1]): MA (moderate activity (MA), that is, inhibition between approximately 20 and 50%)

CC(C)OC(=O)c1cc(NC(=O)c2ccsc2)ccc1Cl [Compound 109]
Activity class of Anti-HIV Compounds, CEM-6 (HIV [1]): MA (moderate activity (MA), that is, inhibition between approximately 20 and 50%)

CC(C)OC(=O)c1cc(NC(=O)C2=CCCCC2)ccc1Cl [Compound 107]
Activity class of Anti-HIV Compounds, CEM-6 (HIV [1]): MA (moderate activity (MA), that is, inhibition between approximately 20 and 50%)

CCC1=C(C(=O)Nc2ccc(Cl)c(C(=O)OCC(C)C)c2)SCCO1 [Compound 74, 2-Methylpropyl 2-chloro-5-[[(2-ethyl-5,6-dihydro-1,4-oxathiin-3-yl)carbonyl]amino]benzoate]
pEC50 (HIV [1]; [3]): 4.41

Cc1coc(C)c1C(=O)Nc1ccc(Cl)c(C(=O)OC(C)C)c1 [Compound 80, 1-Methylethyl 2-chloro-5-[[(2,4-dimethyl-3-furanyl)carbonyl]amino]benzoate]
pEC50 (HIV [1]): 5.64

CC(C)NC(=S)Nc1ccc(Cl)c(C(=O)OC(C)C)c1 [Compound 49]
Activity class of Anti-HIV Compounds, CEM-6 (HIV [1]): MA (moderate activity (MA), that is, inhibition between approximately 20 and 50%)

Cc1nc(-c2ccccc2)c(C(=O)Nc2ccc(Cl)c(C(=O)OC(C)C)c2)o1 [Compound 105]
Activity class of Anti-HIV Compounds, CEM-6 (HIV [1]): MA (moderate activity (MA), that is, inhibition between approximately 20 and 50%)
